From BindingDB's records for doi:10.1111/cbdd.12497 (Shandong University, 2015) come the findings set out here.

This test deals with Reverse transcriptase protein (Human immunodeficiency virus 1, UniProt Q9WJQ1). As to the kind of experiment: In vitro Anti-HIV RT Assay. The text has this: The HIV-1 RTwt inhibition assay was implemented using the template/primer hybrid poly(A)9oligo(dT)15, digoxigenin- and biotin-labeled nucleotides, an antibody to digoxigenin which is conjugated to peroxidase (anti-DIG-POD), and the peroxidase substrate ABTS for quantifying the RT polymerase activity. The incorporation quantities of the digoxigenin- and biotin-labeled dUTP into DNA represented the activity of HIV-1 RT. The IC50 value corresponds to the concentration of the tested compound required to inhibit the incorporation of the labeled dUTP by 50%. The procedure for RT assay was performed as described in the kit (Roche) protocol

Regarding `Cc1cc(C#N)cc(C)c1Oc1nc(Nc2ccc(C#N)cc2)nc(N)c1Br`, the IC50 worked out at 89 nM.
With `Cc1cc(C)cc(C(=O)c2cccnc2Oc2ccc(C#N)cc2)c1` [4-(3-(3,5-Dimethylbenzoyl)pyridin-2-yloxy)benzonitrile (6a1)] the figure was 150000 nM.
With `Cc1ccnc2c1NC(=O)c1cccnc1N2C1CC1` [BI-RG-587] the figure was 580 nM.
